Data reported in BindingDB's records for PubMed 32066009 (Hefei University of Technology, 2020).
pIC50: −log10 of the molar value.

Legend:
Prothrombin = Prothrombin (Homo sapiens, UniProt P00734); assay: Inhibition of thrombin (unknown origin)
Coagulation factor XII = biological target: T1, Coagulation factor XII (Homo sapiens, UniProt P00748); assay: Inhibition of human fXIIA by fluorescence based analysis
T1 sequence (P00748 whole entry): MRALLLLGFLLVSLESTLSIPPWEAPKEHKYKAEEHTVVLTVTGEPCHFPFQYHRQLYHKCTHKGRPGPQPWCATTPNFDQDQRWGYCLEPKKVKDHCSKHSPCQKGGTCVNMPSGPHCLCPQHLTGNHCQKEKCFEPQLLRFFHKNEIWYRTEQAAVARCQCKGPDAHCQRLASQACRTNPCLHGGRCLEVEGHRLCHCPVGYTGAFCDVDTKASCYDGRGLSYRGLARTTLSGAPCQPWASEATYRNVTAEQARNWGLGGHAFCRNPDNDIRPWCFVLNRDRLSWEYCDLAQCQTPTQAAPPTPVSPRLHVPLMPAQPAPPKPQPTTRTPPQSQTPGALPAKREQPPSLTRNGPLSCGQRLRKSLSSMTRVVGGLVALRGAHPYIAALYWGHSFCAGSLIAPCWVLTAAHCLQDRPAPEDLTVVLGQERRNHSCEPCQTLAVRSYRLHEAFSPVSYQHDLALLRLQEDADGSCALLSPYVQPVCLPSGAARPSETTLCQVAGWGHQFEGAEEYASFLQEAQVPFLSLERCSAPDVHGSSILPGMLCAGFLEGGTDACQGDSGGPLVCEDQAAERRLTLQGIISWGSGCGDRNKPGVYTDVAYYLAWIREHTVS

Coagulation factor X = Coagulation factor X (Homo sapiens, UniProt P00742); assay: Inhibition of human fXA by fluorescence based analysis
Sequence of Coagulation factor X (P00742 41-179 limits assumed): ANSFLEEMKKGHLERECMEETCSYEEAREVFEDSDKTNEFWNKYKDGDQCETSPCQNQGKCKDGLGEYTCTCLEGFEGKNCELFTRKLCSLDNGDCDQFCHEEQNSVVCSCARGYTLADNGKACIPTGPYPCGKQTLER
Sequence of Coagulation factor X (P00742 235-488 limits assumed): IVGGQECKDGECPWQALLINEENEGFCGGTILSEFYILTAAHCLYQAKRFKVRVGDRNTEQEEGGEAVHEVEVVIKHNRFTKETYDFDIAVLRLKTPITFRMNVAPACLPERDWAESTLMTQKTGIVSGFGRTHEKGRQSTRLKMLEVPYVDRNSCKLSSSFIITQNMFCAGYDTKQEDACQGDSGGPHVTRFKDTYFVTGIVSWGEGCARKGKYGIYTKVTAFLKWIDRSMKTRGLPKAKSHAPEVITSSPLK

**Q.** How did the pIC50 (Prothrombin) turn out when `CC(=O)c1ccc(NC(=O)[C@H](Cc2ccccc2)NC(=O)C2CCC(CN)CC2)cc1` (some centres undefined) was run?
**A.** The pIC50 was under 3.00.

**Q.** `CCOc1ccc(C[C@@H](NC(=O)c2ccccc2)C(=O)N[C@@H](Cc2ccccc2)C(=O)NCc2ccc(CN)cc2)cc1` [US9234000, 3] was tested. Which pIC50 (Coagulation factor XII) did it give?
**A.** Its pIC50 is under 5.00.

**Q.** What about the pIC50 (Coagulation factor X) of the same compound?
**A.** The pIC50 was under 5.00.

**Q.** With `NCC1CCC(C(=O)N[C@@H](Cc2ccccc2)C(=O)Nc2ccc(CC(=O)O)cc2)CC1` (some centres undefined) as the compound, how does the pIC50 (Prothrombin) read?
**A.** Its pIC50 is under 3.00.
